Target: PI3K (p110α subtype) (Bos taurus, UniProt P32871)
Assay: Inhibition of PI3K (p110α subtype)
Format: biochemical
Conditions: bovine p110α from baculovirus expression system; PI substrate, [γ-32P] ATP, 37°C for 15 minutes
Method: Test Example 1 Inhibition of PI3K (p110α subtype)
Inhibition was determined using enzyme (bovine p110α) prepared in the baculovirus expression system. Bovine p110 was prepared according to a modification from the method by I. Hiles et al., Cell, 70, 419 (1992). Each compound to be assayed was dissolved in DMSO and the obtained 10 mM DMSO solution was serially diluted with DMSO.
The compound (0.5µl) to be assayed and enzyme were mixed in 25µl of buffer solution (40 mM Tris-HCl (pH 7.4), 200 mM NaCl, 2 mM dithiothreitol, 5 mM MgCl2). Then, 25µl of 5 mM Tris-HCl (pH 7.4) buffered solution supplemented with 10µg PI (Sigma), 2µ Ci [γ-^32P] ATP (Amersham Pharmacia) and 80µM nonradiolabeled ATP (Sigma) was added to the mixture to initiate the reaction. After reacting at 37°C for 15 minutes, 200µl of 1M HCl and 400µl of CHCl3 / MeOH (1 : 1) were added to the reaction mixture. The resulting mixture was stirred and then centrifuged. After the organic layer was again extracted twice with 150µl of MeOH / 1M HCl (1 : 1). The radioactivity was measured using Cerenkov light.

Chain of PI3K (p110α subtype) (P32871 whole entry): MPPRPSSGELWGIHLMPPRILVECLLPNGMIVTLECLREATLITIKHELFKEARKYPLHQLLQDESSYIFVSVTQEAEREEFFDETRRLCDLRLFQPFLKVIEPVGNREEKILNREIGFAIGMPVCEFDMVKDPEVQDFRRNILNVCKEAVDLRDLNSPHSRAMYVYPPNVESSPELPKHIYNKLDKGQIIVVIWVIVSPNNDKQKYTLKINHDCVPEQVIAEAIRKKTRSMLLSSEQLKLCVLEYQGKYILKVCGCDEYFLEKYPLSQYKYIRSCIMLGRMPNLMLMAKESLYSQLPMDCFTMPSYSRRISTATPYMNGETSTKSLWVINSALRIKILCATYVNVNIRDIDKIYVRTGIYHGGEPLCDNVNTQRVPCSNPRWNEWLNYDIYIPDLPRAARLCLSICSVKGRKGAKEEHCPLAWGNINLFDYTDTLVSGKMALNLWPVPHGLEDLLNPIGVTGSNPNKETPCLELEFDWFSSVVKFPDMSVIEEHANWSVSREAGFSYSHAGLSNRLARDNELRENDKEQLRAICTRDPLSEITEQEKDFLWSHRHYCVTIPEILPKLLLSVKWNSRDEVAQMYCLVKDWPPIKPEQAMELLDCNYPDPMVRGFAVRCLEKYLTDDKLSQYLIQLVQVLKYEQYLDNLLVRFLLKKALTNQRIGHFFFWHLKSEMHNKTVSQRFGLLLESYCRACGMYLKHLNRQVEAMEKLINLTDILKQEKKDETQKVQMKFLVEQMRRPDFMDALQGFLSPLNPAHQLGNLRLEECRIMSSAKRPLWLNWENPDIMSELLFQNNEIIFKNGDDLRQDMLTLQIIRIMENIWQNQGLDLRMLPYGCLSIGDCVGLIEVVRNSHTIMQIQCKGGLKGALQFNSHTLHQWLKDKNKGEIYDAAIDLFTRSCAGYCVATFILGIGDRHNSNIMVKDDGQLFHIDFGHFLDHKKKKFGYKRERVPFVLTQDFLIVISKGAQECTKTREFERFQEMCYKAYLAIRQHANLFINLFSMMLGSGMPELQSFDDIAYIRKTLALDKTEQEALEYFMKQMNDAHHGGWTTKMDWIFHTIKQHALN

Row | IC50 [µM] | SMILES
1 | < 1 | O=C(Nc1cccc(-c2nc(N3CCOCC3)c3oc4ncccc4c3n2)c1)c1ccccn1 [Co 10]
2 | < 1 | CC(=O)Nc1cccc(-c2nc(N3CCOCC3)c3oc4ncccc4c3n2)c1 [Co 24]

Row | SMILES | IC50 [µM]
3 | Nc1ccc(C(=O)Nc2cccc(-c3nc(N4CCOCC4)c4oc5ncccc5c4n3)c2)cn1 [Co 17, 6-amino-3'-.(4-morpholinopyrido[3',2':4,5]furo[3,2-d]pyrimidin-2-yl)nicotinanilide] | < 1

Tested on: HCT116 cells
Assay: Colon cancer cell growth inhibition (Alamar Blue)
Format: cell-based
Conditions: HCT116 colon cancer cell line, incubation over 72 hours; result in words
Method: Test Example 2 Colon cancer cell growth inhibition
HCT116 cells from a colon cancer cell line were cultured in McCoy's 5A medium (GIBCO) supplemented with 10% fetal bovine serum. HCT116 cells were inoculated on a 96 well plate (5000 cells/well) followed by overnight incubation. The test compound diluted with the medium was added to the medium in a final concentration of […] (final DMSO concentration, 1%). After incubation over 72 hours, Alamar Blue reagent was added to the medium. Two hours after the addition, a ratio of fluorescent intensity at an excitation wavelength of 530 nm to that at an emission wavelength of 590 nm was measured to determine the IC50. Co 14, Co 24, Co 25, Co 31, Co 46 and Co 47 of the present invention exerted an excellent cancer cell growth inhibition activity.

Row | SMILES | cancer cell growth inhibition activity
4 | CC(=O)Nc1cccc(-c2nc(N3CCOCC3)c3oc4ncccc4c3n2)c1 [Co 24] | excellent

Tested on: A375 cells
Assay: Melanoma cell growth inhibition (Alamar Blue)
Format: cell-based
Conditions: Homo sapiens, A-375, 46 h
Method: A375 cells from a melanoma cell line were cultured in DMEM medium (GIBCO) supplemented with 10% fetal bovine serum. A375 cells at 10,000 cells/100µl were added to a 96 well plate which contained 1µl/well of the test compounds (final concentration of 0.001 - 30µM). After incubation for over 46 hours, Alamar Blue reagent was added to the medium (10µl/well).

Row | SMILES | IC50 [µM]
5 | Oc1cccc(-c2nc(N3CCOCC3)c3oc4ncccc4c3n2)c1 [Co 50, 3-(4-morpholinopyrido[3',2':4,5]furo[3,2-d]pyrimidin-2-yl)phenol] | 0.33 to 4.26

Same assay, conditions: Homo sapiens, A-375; A375 melanoma cell line, incubation for over 46 hours, 0.001 - 30µM; range is stated for the group of ten compounds; read-out: IC50

Row | SMILES | IC50 [µM]
6 | Nc1ccc(-c2nc(N3CCOCC3)c3oc4ncccc4c3n2)cc1 [Co 33, 4-(4-morpholinopyrido[3',2':4,5]furo[3,2-d]pyrimidin-2-yl)aniline] | 0.33 to 4.26
7 | c1cc(OCCN2CCNCC2)cc(-c2nc(N3CCOCC3)c3oc4ncccc4c3n2)c1 [Co 69, 4-morpholino-2-[3-(2-piperazin-1-ylethoxy)phenyl]pyrido[3',2':4,5]furo[3,2-d]pyrimidine] | 0.33 to 4.26

Other lines, results leading:

Row | IC50 [µM] | SMILES
8 | 0.33 to 4.26 | Oc1cccc(-c2nc(N3CCOCC3)c3cnccc3n2)c1 [Co 164, 3-(4-morpholinopyrido[4,3-d]pyrimidin-2-yl)phenol]
9 | 0.33 to 4.26 | Oc1cccc(-c2nc(N3CCOCC3)c3ncccc3n2)c1 [Co 172, 3-(4-morpholinopyrido[3,2-d]pyrimidin-2-yl)phenol]
10 | 0.33 to 4.26 | Oc1cccc(-c2nc(N3CCOCC3)c3ccncc3n2)c1 [Co 174, 3-(4-morpholinopyrido[3,4-d]pyrimidin-2-yl)phenol]
11 | 0.33 to 4.26 | COc1ccc2nc(-c3cccc(O)c3)nc(N3CCOCC3)c2c1 [Co 186, 3-(6-methoxy-4-morpholinoquinazolin-2-yl)phenol]
12 | 0.33 to 4.26 | Oc1cccc(-c2nc(N3CCOCC3)c3sccc3n2)c1 [Co 190, 3-(4-morpholinothieno[3,2-d]pyrimidin-2-yl)phenol]
13 | 0.33 to 4.26 | Oc1cccc(-c2nc(N3CCOCC3)c3nccnc3n2)c1 [Co 191, 3-(4-morpholinopteridin-2-yl)phenol]

Reference: EP1277738B1, “CONDENSED HETEROARYL DERIVATIVES” (Astellas Pharma Inc., priority 2000, dated 2001)
